Patent publication US20070167408A1, “NOVEL ALKYL PHOSPHOLIPID DERIVATIVES WITH REDUCED CYTOTOXICITY AND USES THEREOF” (ZENTARIS GmbH, priority 2005, published 2007)
≈ marks a conversion by molar mass, not a printed value.

What was measured:
Assay type in all cases: cell-based
[1] = tested on: Streptococcus pneumoniae DSM 20566 (ATCC 33400); test: Anti-bacterial bouillon microdilution assay (MIC), bacterium A; conditions: Streptococcus pneumoniae DSM 20566, 24 h
Description: Selected compounds of the invention were tested in a bouillon microdilution assay method according to the DIN 58940 (www.din.de) guidelines for determination of susceptibility of bacterial strains with regard to cell growth inhibition. The assay method quantifies bacterial cell growth which corresponds to the turbidity of the liquid culture medium by photometric measurement carried out at 595 nm.
The method of MIC determination was performed according to DIN 58940-5. The volumina were adapted according to the microdilution method as described in DIN 58940-7 guideline.
Dependent on water solubility, compounds of the invention were dissolved either in water or ethanol in a concentration of 10 mg/ml. Subsequently, the stock was further diluted in water to a concentration of 512 μg/ml. The following serial dilutions (factor 2) were performed in water resulting in the following […] testing concentrations: 256 μg/ml, 128 μg/ml, 64 μg/ml, 32 μg/ml, 16 μg/ml, 8 μg/ml, 4 μg/ml, 2 μg/ml, 1 μg/ml, 0.5 μg/ml, 0.25 μg/ml and 0.125 μg/ml. Diluted compounds of the invention were transferred in 100 μl volume to the microtiter plate wells.
Pre-cultures of bacteria were grown in appropriate liquid media (refer to ATCC webpage, www.atcc.org) and afterwards were inoculated in corresponding liquid medium. 100 μl of the inoculums [adjusted to an amount of app. 1×10^6 microorganisms per ml (range of 10^5-10^8 microorganisms per ml)] were added to each of the testing compound concentrations and cultivated under the appropriate conditions.
Before and after incubation, bacterial growth was determined by photometric analysis against a positive control containing growing bacteria without compound and a sterile/negative control containing only the medium.

[2] = tested on: RKOp21 (human colon adenocarcinoma) cells; test: XTT cytotoxicity assay, RKOp21 cells; conditions: 31.6 μM, second set of experiments
Method in brief: (§1)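 Cells recovered 24 h after plating, then exposed to compounds for 48 h at 37 °C; one set used 10 semi-log concentrations from 100 μM, another 31.6 μM final for PC3 and RKOp21. XTT-PMS added for 3 h, formazan absorbance at 490 nm versus untreated cells; IC50 from inhibition curves.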

[3] = tested on: PC3 (human prostate carcinoma) cells; test: XTT cytotoxicity assay, PC3 cells; conditions: 31.6 μM, second set of experiments
Method in brief: as §1

[4] = tested on: SKOV-3 (human ovary adenocarcinoma) cells; test: XTT cytotoxicity assay, SKOV-3 cells
Method in brief: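 Exponentially growing SKOV-3 cells recovered 24 h after plating, then received freshly diluted compounds for 2 days of continuous exposure. Viability was read by formazan formation after 3 h with XTT-PMS at 37° C., 5% CO2. IC50 came from inhibition curves.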

SMILES | MIC, bacterium A [1] [µg/mL] | RKOp21 % INH [31.6 μM] [2] [%] | PC3 % INH [31.6 μM] [3] [%] | SKOV-3 % INH [100 μM] ([4]; second set of experiments) [%] | MIC [1] [µg/mL] | inhibition at 31.6 µM ([2]; Homo sapiens, read-out: RKOp21 % INH [31.6 μM]) [%] | inhibition at 31.6 µM ([3]; Homo sapiens, PC-3, read-out: PC3 % INH [31.6 μM]) [%] | inhibition at 100 µM ([4]; Homo sapiens, SK-OV-3, second set of experiments, read-out: SKOV-3 % INH [100 μM]) [%]
CCCCCCCCCCCCCCCCOP(=O)([O-])OCC[N+]1(C)CCCCC1 [Compound 2, Phosphoric acid hexadecyl ester 2-(1-methyl-piperidin-1-yl)-ethyl ester] | 8 (≈ 17.9 µM) | 38.8 | 50.1 | 19.5 | – | – | – | –
CCCCCCCCCCCCCCCCOP(=O)([O-])OCC[N+](C)(C)C [miltefosine, hexadecylphosphocholine, reference compound] | – | – | – | – | 128 (≈ 314 µM) | 64 | 67.4 | 74.7
